Where “and” joins values, the source holds several entries; their conditions need not be identical. Identical values can stand only once.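 1) Cells in 96-well plates. 2) Compound, 48 h, 5 concentrations. 3) Linear interpolation between surrounding doses. 4) Unreached endpoint = highest concentration. Here, GI50 denotes the concentration required for 50% inhibition of growth. At the TGI there is no net growth.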
Columns and labels:
Test in all cases: NCI tumour cell line growth inhibition, 48 h
A498 renal = tested on: A498 renal
SF-539 CNS = tested on: SF-539 CNS
SK-OV-3 ovarian = tested on: SK-OV-3 ovarian
COLO 205 colon = tested on: COLO 205 colon
UACC-257 melanoma = tested on: UACC-257 melanoma
SF-295 CNS = tested on: SF-295 CNS
HOP-92 NSCLC = tested on: HOP-92 NSCLC
KM12 colon = tested on: KM12 colon
IGROV1 ovarian = tested on: IGROV1 ovarian
PC-3 prostate = tested on: PC-3 prostate

Row | SMILES | GI50 (A498 renal) | TGI (A498 renal) | GI50 (SF-539 CNS) | TGI (SF-539 CNS) | GI50 (SK-OV-3 ovarian) | TGI (SK-OV-3 ovarian) | GI50 (COLO 205 colon) | TGI (COLO 205 colon) | GI50 (UACC-257 melanoma) | TGI (UACC-257 melanoma) | GI50 (SF-295 CNS) | TGI (SF-295 CNS) | GI50 (HOP-92 NSCLC) | TGI (HOP-92 NSCLC) | GI50 (KM12 colon) | TGI (KM12 colon) | GI50 (IGROV1 ovarian) | TGI (IGROV1 ovarian) | GI50 (PC-3 prostate) | TGI (PC-3 prostate)
1 | COCCOc1ccc(-c2nc3ccc(-c4nc5ccc(N6CCN(C)CC6)cc5[nH]4)cc3[nH]2)cc1 | 1.21 µM | 3.39 µM | 1.22 µM | 2.83 µM | 2.7 µM | 15.6 µM | 0.371 µM | 3.05 µM | 1.71 µM | 5.92 µM | 1.38 µM | 15.7 µM | 2.16 µM | 9.71 µM | 2.58 µM | 14.3 µM | 1.71 µM | 4.81 µM | 2.19 µM | 24.5 µM
2 | O=C1NC(=NC(CO)Cc2ccccc2)S/C1=C\c1ccc2ncccc2c1 (stereo not given) | > 15.2 µM and 1.96 µM | > 25 µM and 7.67 µM | 11.9 µM and 2.73 µM | > 25 µM and 10.1 µM | 14.1 µM and 3.74 µM | > 25 µM and 21.2 µM | 9.23 µM and 1.86 µM | > 25 µM | > 25 µM and 5.79 µM | > 25 µM and 19 µM | > 25 µM and 5.5 µM | > 25 µM | 24.2 µM and 6.61 µM | > 25 µM and 19.5 µM | 12.4 µM and 2.25 µM | > 25 µM | 12.8 µM and 2.08 µM | > 25 µM | > 25 µM and 3.9 µM | > 25 µM
3 | COc1cccc(C2SC(N)=Nc3c2c(C)nn3C(=O)c2ccccc2O)c1 (stereo not given) | – | > 10 µM | – | > 2.64 µM | – | > 10 µM | – | > 10 µM | – | > 10 µM | – | > 10 µM | – | > 10 µM | – | > 10 µM | – | > 10 µM | – | > 10 µM
4 | O=CNc1ccc2c(c1)C(=O)c1ccccc1-2 | – | > 100 µM | – | > 100 µM | – | > 100 µM | – | > 100 µM | – | > 100 µM | – | > 100 µM | – | > 100 µM | – | > 100 µM | – | > 100 µM | – | > 100 µM
5 | O=C(O)c1ccc2c(c1C(=O)O)C(=O)OC2(c1ccc(O)cc1)c1ccc(O)cc1 | – | > 100 µM | – | > 100 µM | – | > 100 µM | – | > 100 µM | – | > 100 µM | – | > 100 µM | – | > 100 µM | – | > 100 µM | – | > 100 µM | – | > 100 µM
6 | O=S(=O)(c1ccccc1)N1CCN(S(=O)(=O)c2ccccc2)c2ccccc21 | – | > 100 µM | – | > 100 µM | – | > 100 µM | – | > 100 µM | – | > 100 µM | – | > 100 µM | – | > 100 µM | – | > 100 µM | – | > 100 µM | – | > 100 µM
7 | CN(C)CC1CC/C(=C\c2ccc(O)cc2)C1=O (stereo not given) | – | 21.3 µM | – | 17.1 µM | – | 32.3 µM | – | 3.77 µM | – | 11.3 µM | – | 34.5 µM | – | 5.82 µM | – | 16.6 µM | – | 24.1 µM | – | 20.2 µM
8 | O=C1CCCCN1c1ccccc1C#C/C=C\C#Cc1ccccc1C(F)(F)F | 2.25 µM | 28.4 µM | 1.44 µM | 4.43 µM | > 50 µM | > 50 µM | 11.5 µM | > 50 µM | 2.72 µM | 18.3 µM | 1.11 µM | 3.16 µM | 10.7 µM | 43.1 µM | 1.8 µM | 11.4 µM | 1.12 µM | 3.63 µM | 2.32 µM | > 50 µM
9 | CC(C)[C@@H]1C=C2CC[C@H]3[C@](C)(CN)CCC[C@]3(C)[C@H]2CC1 | 2.13 µM | 15 µM | 3.44 µM | 13 µM | 13.2 µM | 26 µM | 1.7 µM | 3.17 µM | 2.9 µM | 9.88 µM | 1.9 µM | 4.29 µM | 3.3 µM | 17.6 µM | 1.76 µM | 3.23 µM | 1.93 µM | 4.09 µM | 5.59 µM | 19.6 µM
10 | CCCOc1cc2ccccc2cc1C(=O)Nc1nc(N)c2c(ccc3nccc32)[nH]1 | 0.0312 µM | 0.622 µM | 0.0538 µM | 1.04 µM | 0.0591 µM | 2.36 µM | 0.0445 µM | 0.481 µM | 1.21 µM | 2.62 µM | 0.0307 µM | 1.26 µM | 0.0279 µM | 1.98 µM | 0.0448 µM | 1.53 µM | 0.519 µM | 2.89 µM | 0.0492 µM | 2.22 µM
11 | c1ccc(Sc2ncnc3ccccc23)cc1 | 15.4 µM | 39.2 µM | 15.9 µM | 34.2 µM | 22.1 µM | 49.6 µM | 15 µM | 28.3 µM | 11.9 µM | 34.7 µM | 14.2 µM | 45.6 µM | 4.49 µM | 27.5 µM | 13.2 µM | 28.2 µM | 4.5 µM | 34.3 µM | 12.3 µM | 60 µM
12 | O=C(O)c1nc2nc(Cl)c(Cl)nc2[nH]1 | – | > 100 µM | – | > 100 µM | – | > 100 µM | – | > 100 µM | – | > 100 µM | – | > 100 µM | – | > 100 µM | – | > 100 µM | – | > 100 µM | – | > 100 µM
13 | C=C1C(=O)O[C@H]2[C@H]1CC/C(COC(=O)NCc1ccc(Cn3c(=O)sn(-c4ccc(OC)cc4)c3=O)cc1)=C\CC[C@@]1(C)O[C@@H]21 | 5.65 µM | 17.8 µM | 1.96 µM | 4.15 µM | 14.4 µM | 27.4 µM | 1.85 µM | 3.38 µM | 2.03 µM | 4.34 µM | 15 µM | 28.9 µM | 1.61 µM | 3.47 µM | 3.75 µM | 14 µM | 2.85 µM | 8.04 µM | 2.19 µM | 5.27 µM
14 | O=C(/C(=C/c1ccc([N+](=O)[O-])cc1)SCc1ccccc1)c1ccc(Cl)cc1 | 13.2 µM | 28.2 µM | 2.64 µM | 8.2 µM | 14.4 µM | 36.4 µM | 2.14 µM | 5.11 µM | 6.36 µM | 19.4 µM | 5.54 µM | 18.9 µM | 2.28 µM | 9.46 µM | 2.34 µM | 6.91 µM | 2.86 µM | 11.6 µM | 2.35 µM | 5.43 µM
15 | N#CC(C#N)=C/C=C(\Sc1nc2ccccc2s1)c1ccc(Cl)cc1 | 8.26 µM | 28.6 µM | 2.83 µM | 9.89 µM | 11.9 µM | > 42.2 µM | 3.26 µM | > 27.7 µM | 12.1 µM | 25.4 µM | 8.9 µM | 27.7 µM | 13.8 µM | 29.3 µM | 8.9 µM | 33.6 µM | 4.87 µM | 12.5 µM | 6.67 µM | 27.7 µM
16 | CC(=O)CC(OC(C)=O)C1=CCC2C(CC1C)OC(=O)C2C (stereo not given) | – | > 100 µM | – | > 100 µM | – | > 100 µM | – | > 100 µM | – | > 100 µM | – | > 100 µM | – | > 100 µM | – | > 100 µM | – | > 100 µM | – | > 100 µM
17 | COc1cc(/C(C#N)=C/c2nc3c(N4CCOCC4)nc(Cl)nc3n2C)cc(OC)c1OC | < 0.01 µM | < 0.01 µM | < 0.01 µM | < 0.01 µM | < 0.01 µM | 7.27 µM | 0.0124 µM | 0.0335 µM | 2.45 µM | > 55.2 µM | < 0.01 µM | 1.49 µM | 0.158 µM | 4.38 µM | < 0.01 µM | 4.36 µM | < 0.01 µM | 16.6 µM | < 0.01 µM | 7.62 µM
18 | CC1(COc2ccc3c(c2)ncn3-c2ccc3cccc(N4CCC(N)CC4)c3n2)COC1 | 5.01 µM and 2.03 µM | 10.7 µM and 4.27 µM | 1.26 µM and 1.01 µM | 2.65 µM and 2.59 µM | 15.5 µM and > 10 µM | 29.2 µM and > 10 µM | 1.09 µM and 1.02 µM | 2.44 µM and 2.86 µM | 2.7 µM | 5.36 µM and 5.55 µM | 5.75 µM and 2.88 µM | 19.4 µM and > 10 µM | 10.3 µM and 3.27 µM | 25.7 µM and > 10 µM | 0.0519 µM and 0.118 µM | 5.74 µM and > 10 µM | 4.07 µM and 2.57 µM | 14 µM and > 10 µM | 5.38 µM and 3.54 µM | 21.6 µM and > 10 µM
19 | CN1CC[C@@H](NC(=O)Nc2ccc(C#N)cc2)C[C@@H]1c1nc2ccccc2[nH]1 | > 27.4 µM | > 65.7 µM | > 100 µM | > 100 µM | > 100 µM | > 100 µM | > 80.6 µM | > 100 µM | > 100 µM | > 100 µM | > 100 µM | > 100 µM | 35.9 µM | > 100 µM | > 100 µM | > 100 µM | > 100 µM | > 100 µM | > 100 µM | > 100 µM
20 | Nc1ccc(C2=NNC(=O)Cc3cc4c(cc32)OCCO4)cc1Cl | 0.944 µM | 19.9 µM | 4.15 µM | 16.8 µM | 8.1 µM | > 50 µM | 2.63 µM | 17.5 µM | 13.3 µM | > 50 µM | 2.49 µM | > 50 µM | 4.89 µM | 49 µM | 1.74 µM | > 50 µM | 4.54 µM | > 50 µM | 7.94 µM | > 50 µM
21 | COc1ccc(/C=N/NC(=O)c2cccc3cc[nH]c23)cc1O | 4.05 µM | 86.1 µM | 1.85 µM | > 100 µM | 9.87 µM | > 100 µM | 13.9 µM | > 80.7 µM | > 42.8 µM | > 100 µM | 0.736 µM | > 24.8 µM | 18.5 µM | > 74.6 µM | 0.883 µM | > 100 µM | 7.91 µM | > 100 µM | 2.05 µM | > 100 µM
22 | O=C(/C=C/c1ccc(O)cc1)c1ccc(O)cc1 | – | 65.1 µM | – | 54.2 µM | – | > 100 µM | – | > 65.9 µM | – | 74.7 µM | – | > 96.7 µM | – | 76 µM | – | 19.8 µM | – | > 100 µM | – | > 100 µM

From PubChem BioAssay (NCI)
